Laboratory results: patent US5196438A, “Amino acid derivatives” (Hoffmann-La Roche Inc., priority 1989, dated 1993)
Like-named read-outs stand apart in the source and are kept apart here.

Experiments:
[1] = target: HIV protease (Human immunodeficiency virus type 1 group M subtype B, UniProt P04585); test: In vitro inhibition of HIV protease (spectrophotometric assay of N-terminal proline from peptide substrate cleavage); format: biochemical; conditions: citrate buffer pH 5.5, 37° C.
Description: HIV protease was expressed in E. coli and partially purified from soluble extracts of the bacterium by ammonium sulphate fractionation (0-30%). […] Cleavage of the substrate was quantified by measuring the production of H-Pro-Ile isobutylamide by the spectrophotometric assay of N-terminal proline.
1.25 mM of substrate were dissolved in 125 mM of citrate buffer (pH 5.5) containing 0.125 mg/ml of Tween 20. […] The solution was heated in a water bath and then the pigmented residues were re-dissolved in 1 ml of 1% pyrogallol in 33% water in acetone (wt./vol./vol.). The optical density of the solution was measured spectrophotometrically at 599 nm.

[2] = system: HTLV-III (strain RF) grown in C8166 cells; test: Activity against HIV (p24 antigen capture assay in infected C8166 cells); format: cell-based; conditions: Human immunodeficiency virus 1, concentration that produces 50% protection, 72 hours, viral protein 24 antigen capture, read-out: I50 Activity against HIV
Description: This assay uses HTLV-III (strain RF) grown in C8166 cells (a human CD4^+ T lymphoblastoid line) using RPM1 1640 medium with bicarbonate buffer, antibiotics and 10% fetal bovine serum.
A suspension of cells is infected with ten times the TCD50 of virus and adsorption allowed to proceed for 90 minutes at 37° C. The cells are washed three times with medium. The test is carried out in 6 ml tissue culture tubes, each tube containing 2×10^5 infected cells in 1.5 ml of medium. Test compounds are dissolved in either aqueous medium or dimethyl sulphoxide, according to solubility, and a 15 μl solution of the substance added. The cultures are incubated at 37° C. for 72 hours in a humidified atmosphere containing 5% carbon dioxide in air. The cultures are then centrifuged and an aliquot of the supernatant solubilized with Nonidet P40 and subjected to an antigen capture assay which uses a primary antiserum with particular reactivity against the viral protein 24 and a horseradish peroxidase detection system. Color generation is measured spectrophotometrically and plotted against the concentration of test substance. The concentration that produces 50% protection is determined. (I50).

SMILES | IC50 ([1]; substrate S^1: succinyl-Ser-Leu-Asn-Tyr-Pro-Ile isobutylamide, read-out: I50 Inhibition of HIV protease, S^1) [nM] | IC50 ([1]; substrate S^2: succinyl-Val-Ser-Gln-Asn-Phe-Pro-Ile isobutylamide, read-out: I50 Inhibition of HIV protease, S^2) [nM] | IC50 [2] [nM]
CC(C)(C)NC(=O)[C@@H]1C[C@@H]2CCCC[C@@H]2CN1C[C@@H](O)[C@H](Cc1ccccc1)NC(=O)[C@H](CC(N)=O)NC(=O)OCc1ccccc1 [Benzyloxycarbonyl, 2-[3(S)-[[N-(benzyloxycarbonyl)-L-asparaginyl]amino]-2(R)-hydroxy-4-phenylbutyl]-N-tert.butyl-decahydro-(4aS,8aS)-isoquinoline-3(S)-carboxamide] | < 24 | < 2.7 | 20
CC(C)(C)NC(=O)[C@@H]1C[C@@H]2CCCC[C@@H]2CN1C[C@@H](O)[C@H](Cc1ccccc1)NC(=O)[C@H](CC(N)=O)NC(=O)c1ccc2ccccc2n1 [2-Quinolylcarbonyl, N-tert.butyl-decahydro-2-[2(R)-hydroxy-4-phenyl-3(S)-[[N-(2-quinolylcarbonyl)-L-asparaginyl]amino]butyl]-(4aS,8aS)-isoquinoline-3(S)-carboxamide] | – | – | 2
